According to publication PMC12301332, “Biased antagonism of a series of bicyclic CXCR2 intracellular allosteric modulators” (Frontiers in Pharmacology, 2025):

Assays:
CXCR2 [1] = biological target: T1, CXCR2 (Homo sapiens, UniProt P25025); test: NanoBRET-based G protein activation inhibition assay (REGA-SIGN Gαi1 dissociation) in HEK293A.CXCR2 cells; format: cell-based; settings: n = 3; for IC50: mean; for Imax Gαi1 (maximum observed inhibitory effect): normalized to Imax of navarixin = 100%
T1 construct: expressed in transfected cells
T1 sequence (P25025 1-360): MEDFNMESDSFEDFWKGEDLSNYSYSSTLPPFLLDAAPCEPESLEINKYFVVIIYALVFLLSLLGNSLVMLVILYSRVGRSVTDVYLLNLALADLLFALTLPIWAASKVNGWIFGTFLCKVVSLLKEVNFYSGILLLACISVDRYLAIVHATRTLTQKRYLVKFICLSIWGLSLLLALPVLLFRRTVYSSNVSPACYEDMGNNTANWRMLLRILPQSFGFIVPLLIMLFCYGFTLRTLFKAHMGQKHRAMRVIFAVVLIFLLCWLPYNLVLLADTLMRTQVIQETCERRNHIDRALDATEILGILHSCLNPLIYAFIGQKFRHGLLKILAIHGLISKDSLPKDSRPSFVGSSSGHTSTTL
Procedure: Cells were trypsinized and resuspended at 3 × 10^5 cell/mL in the growth medium, whereafter they were incubated for 2 hours at RT. Cells were transfected in suspension using FuGENE® HD Transfection Reagent at a 3:1 reagent to DNA ratio in Opti-MEMTM I Reduced-Serum Medium, with the final DNA concentration of 1 μg/μL. The transfection mixture was incubated for 10 min at RT before adding it to the cell suspension. Transfected cells were seeded at 3.0 × 10^4 cells/well in a white, clear, flat-bottom 96-well plate coated with 100 μg/mL poly-D-lysin ([…], Sigma Aldrich) and incubated for 48 h at 37°C and 5% CO2. […] (2023)]. Following the 48-h incubation period, cells were washed with the assay buffer. Compounds were serially diluted in 1:500 Nano-Glo® Vivazine^TM working solution (#N2581, Promega), and 90 μL of compound/Vivazine mix was added, followed by incubation for 45 min at 37°C and 5% CO2. Plates were transferred to the FLIPR Penta system (Molecular Devices) at 37°C, and all steps onward are automated and performed by the FLIPR Penta system. After a 10-min equilibration period, the baseline BRET signal was determined by five consecutive reads followed by automatic administration of 10 μL of 10× ligand (Table 1) to the cell plate. Changes in the BRET signal was measured for 10 min, with each read spaced by 2.5 s. […] BRET ratios were extracted from ScreenWorks software (Molecular Devices) and represent the ratio between the acceptor emission of […]2 or mNG (G protein or β-arrestin recruitment, respectively) and NLuc donor emission. The basal BRET ratio was defined as the average BRET ratio of the five consecutive readings preceding ligand addition. Changes in BRET values post ligand administration (ΔBRET) were calculated for each well as a percentage difference to the previously defined basal BRET ratio. Average ΔBRET values were baseline corrected by subtracting the average negative control BRET ratio (unstimulated condition). […] AUCs were normalized to the positive control (stimulated condition); whereafter, dose-response curves were fitted to log (inhibitor) vs response (three parameters) in GraphPad 10.2.0 (GraphPad Software). […] Calculation 1: calculation of the BRET signal. • 1. […] NC correctedΔBRET=Δ[…]. • 4. a. Neg AUC of NC correctedΔBRET=Gα activation read out. b. Pos AUC of NC correctedΔBRET=β-arrestin recruitment.

CXCR2 [2] = biological target: T1, CXCR2; test: NanoBRET β-arrestin1 recruitment inhibition assay (NanoLux) in HEK293A cells; format: cell-based; settings: n = 3; for IC50: mean, read-out: IC50 βarr1; for Imax βarr1 (maximum observed inhibitory effect): normalized to Imax of navarixin = 100%
Procedure: Cells were trypsinized and resuspended at 3 × 10^5 cell/mL in the growth medium, whereafter they were incubated for 2 hours at RT. Cells were transfected in suspension using FuGENE® HD Transfection Reagent at a 3:1 reagent to DNA ratio in Opti-MEMTM I Reduced-Serum Medium, with the final DNA concentration of 1 μg/μL. The transfection mixture was incubated for 10 min at RT before adding it to the cell suspension. Transfected cells were seeded at 3.0 × 10^4 cells/well in a white, clear, flat-bottom 96-well plate coated with 100 μg/mL poly-D-lysin ([…], Sigma Aldrich) and incubated for 48 h at 37°C and 5% CO2. HEK293A cells were transiently co-transfected with plasmids encoding β-arrestin1 protein tagged with NLuc (donor) and CXCR2 protein tagged with mNeonGreen (mNG) acceptor in a 1:10 donor to acceptor ratio, as described previously ([Luís et al., 2022]). All subsequent steps are identical to those in “NanoBRET-based G protein activation inhibition assay,” which are described above. Measurements were acquired using a 440- to 480-nm donor emission filter (#0200-6179, Molecular Devices) and a 515- to 575-nm acceptor emission filter (#0200-6203, Molecular Devices) BRET ratios were extracted from ScreenWorks software (Molecular Devices) and represent the ratio between the acceptor emission of […]2 or mNG (G protein or β-arrestin recruitment, respectively) and NLuc donor emission. The basal BRET ratio was defined as the average BRET ratio of the five consecutive readings preceding ligand addition. Changes in BRET values post ligand administration (ΔBRET) were calculated for each well as a percentage difference to the previously defined basal BRET ratio. Average ΔBRET values were baseline corrected by subtracting the average negative control BRET ratio (unstimulated condition). […] AUCs were normalized to the positive control (stimulated condition); whereafter, dose-response curves were fitted to log (inhibitor) vs response (three parameters) in GraphPad 10.2.0 (GraphPad Software). […] Calculation 1: calculation of the BRET signal. • 1. […] NC correctedΔBRET=Δ[…]. • 4. a. Neg AUC of NC correctedΔBRET=Gα activation read out. b. Pos AUC of NC correctedΔBRET=β-arrestin recruitment.

Structure (SMILES) | IC50 (CXCR2 [1]; CXCL1 at EC80) [nM] | Imax Gαi1 (maximum observed inhibitory effect) (CXCR2 [1]; CXCL1 at EC80) [%] | IC50 (CXCR2 [1]; CXCL2 at EC80) [nM] | Imax Gαi1 (maximum observed inhibitory effect) (CXCR2 [1]; CXCL2 at EC80) [%] | IC50 (CXCR2 [1]; CXCL3 at EC80) [nM] | Imax Gαi1 (maximum observed inhibitory effect) (CXCR2 [1]; CXCL3 at EC80) [%] | IC50 (CXCR2 [1]; CXCL5 at EC80) [nM] | Imax Gαi1 (maximum observed inhibitory effect) (CXCR2 [1]; CXCL5 at EC80) [%] | IC50 (CXCR2 [1]; CXCL6 at EC80) [nM] | Imax Gαi1 (maximum observed inhibitory effect) (CXCR2 [1]; CXCL6 at EC80) [%] | IC50 (CXCR2 [1]; CXCL7 at EC80) [nM] | Imax Gαi1 (maximum observed inhibitory effect) (CXCR2 [1]; CXCL7 at EC80) [%] | Imax Gαi1 (maximum observed inhibitory effect) (CXCR2 [1]; CXCL8 at EC80) [%] | Imax βarr1 (maximum observed inhibitory effect) (CXCR2 [2]; CXCL1 at EC80) [%] | Imax βarr1 (maximum observed inhibitory effect) (CXCR2 [2]; CXCL2 at EC80) [%] | Imax βarr1 (maximum observed inhibitory effect) (CXCR2 [2]; CXCL3 at EC80) [%] | Imax βarr1 (maximum observed inhibitory effect) (CXCR2 [2]; CXCL5 at EC80) [%] | Imax βarr1 (maximum observed inhibitory effect) (CXCR2 [2]; CXCL6 at EC80) [%] | Imax βarr1 (maximum observed inhibitory effect) (CXCR2 [2]; CXCL7 at EC80) [%] | Imax βarr1 (maximum observed inhibitory effect) (CXCR2 [2]; CXCL8 at EC80) [%] | further results
CCCC(C)CSc1nc(NC(C)CO)c2nn[nH]c2n1 (centres unmarked) [MVH-82] | > 15000 | <50 | > 15000 | <50 | > 15000 | <50 | > 15000 | <50 | > 15000 | <50 | > 15000 | <50 | <50 | 97.29 ± 1.61 | 96.96 ± 5.75 | 100 | 100 | 100 | 98.49 ± 1.76 | 100 | IC50 (CXCR2 [1]; CXCL8 at EC80): > 15000 nM; IC50 (CXCR2 [2]; CXCL1 at EC80): 2130 ± 340 nM; IC50 (CXCR2 [2]; CXCL2 at EC80): 740 ± 160 nM; IC50 (CXCR2 [2]; CXCL3 at EC80): 2530 ± 150 nM; IC50 (CXCR2 [2]; CXCL5 at EC80): 1330 ± 470 nM; IC50 (CXCR2 [2]; CXCL6 at EC80): 880 ± 470 nM; IC50 (CXCR2 [2]; CXCL7 at EC80): 370 ± 110 nM; IC50 (CXCR2 [2]; CXCL8 at EC80): 2320 ± 720 nM
CC(CO)Nc1nc(SCc2cccc(F)c2F)nc2ncsc12 (centres unmarked) [MVH-22] | > 15000 | <50 | > 15000 | <50 | > 15000 | <50 | > 15000 | <50 | > 15000 | <50 | > 15000 | <50 | <50 | 100 | 100 | 100 | 100 | 100 | 97.6 ± 3.45 | 100 | IC50 (CXCR2 [1]; CXCL8 at EC80): > 15000 nM; IC50 (CXCR2 [2]; CXCL1 at EC80): 2850 ± 680 nM; IC50 (CXCR2 [2]; CXCL2 at EC80): 1500 ± 180 nM; IC50 (CXCR2 [2]; CXCL3 at EC80): 3440 ± 750 nM; IC50 (CXCR2 [2]; CXCL5 at EC80): 1960 ± 530 nM; IC50 (CXCR2 [2]; CXCL6 at EC80): 1470 ± 200 nM; IC50 (CXCR2 [2]; CXCL7 at EC80): 500 ± 70 nM; IC50 (CXCR2 [2]; CXCL8 at EC80): 2660 ± 300 nM
CC(CO)Nc1nc(SCc2cccc(F)c2F)nc2nc(N)sc12 (centres unmarked) [MVH-23] |  | 94.85 ± 3.70 |  | 100 |  | 100 |  | 94.29 ± 2.32 |  | 100 |  | 100 | 100 | 100 | 100 | 100 | 100 | 100 | 100 | 100 | 
CC(CO)Nc1nc(SCc2cccc(F)c2F)nc2[nH]cnc12 (centres unmarked) [MVH-15] | > 15000 | <50 | > 15000 | <50 | > 15000 | <50 | > 15000 | <50 | > 15000 | <50 | > 15000 | <50 | <50 | 100 | 100 | 100 | 100 | 100 | 100 | 100 | IC50 (CXCR2 [1]; CXCL8 at EC80): > 15000 nM; IC50 (CXCR2 [2]; CXCL1 at EC80): 3510 ± 830 nM; IC50 (CXCR2 [2]; CXCL2 at EC80): 2060 ± 570 nM; IC50 (CXCR2 [2]; CXCL3 at EC80): 4290 ± 1160 nM; IC50 (CXCR2 [2]; CXCL5 at EC80): 2100 ± 360 nM; IC50 (CXCR2 [2]; CXCL6 at EC80): 2280 ± 570 nM; IC50 (CXCR2 [2]; CXCL7 at EC80): 700 ± 140 nM; IC50 (CXCR2 [2]; CXCL8 at EC80): 4070 ± 1600 nM
